Read-outs that look alike come from different tables or passages of the source.
Key:
NR2A = NR2A (Homo sapiens, UniProt Q12879); assay: Potentiation of [3H]MK-801 binding, wild-type NMDAR2A; parameters: species or system rat; conditions: for NMDAR2A BINDING PROFILE % 1 mM Glycine: relative to 1 mM glycine
NR2B = NR2B (Homo sapiens, UniProt Q13224); assay: Potentiation of [3H]MK-801 binding, wild-type NMDAR2B; parameters: species or system rat; conditions: for NMDAR2B BINDING PROFILE % 1 mM Glycine: relative to 1 mM glycine; for NMDAR2B BINDING PROFILE Conclusion / EC50: wild-type NMDAR2B; for EC50: 0 = no activity, read-out: NMDAR2B BINDING PROFILE −logEC50 (converted)
Procedure: (§1) Assays were conducted as described by Moskal et al., “GLYX-13: a monoclonal antibody-derived peptide that acts as an N-methyl-D-aspartate receptor modulator,” Neuropharmacology, 49, 1077-87, 2005. The potentiation of [^3H]MK-801 binding (5 nM; 22.5 Ci/mmol) to well washed rat cortical membranes (200 μg) was measured under non-equilibrium conditions (15 min @ 25° C.) in the presence of increasing concentrations of Compound AA or Compound BB.
(§2) FIG. 2A depicts the potentiation of [^3H]MK-801 binding for wild-type NMDAR2 subtypes in the presence of Compound AA. FIG. 2B depicts the potentiation of [^3H]MK-801 binding for wild-type NMDAR2 subtypes in the presence of Compound BB. The following table depicts the results (P means potency and A means activity): […]

NR2C = NR2C (Homo sapiens, UniProt Q14957); assay: Potentiation of [3H]MK-801 binding, wild-type NMDAR2C; parameters: species or system rat; conditions: for NMDAR2C BINDING PROFILE % 1 mM Glycine: relative to 1 mM glycine
Procedure: as §1, §2

NR2D = NR2D (Homo sapiens, UniProt O15399); assay: Potentiation of [3H]MK-801 binding, wild-type NMDAR2D; parameters: species or system rat; conditions: for NMDAR2D BINDING PROFILE % 1 mM Glycine: relative to 1 mM glycine
Procedure: as §1, §2

[1] = Microsomal stability, human; type: in vitro ADME; conditions: human microsomes
Procedure: (§3) Microsomal stability for Compound AA and Compound BB was investigated. The following table indicates the percent of Compound AA and Compound BB remaining after 60 minutes.

[2] = Microsomal stability, rat; type: in vitro ADME; conditions: rat microsomes
Procedure: as §3

Plasma stability, human = type: in vitro ADME
Procedure: (§4) Plasma stability for Compound AA and Compound BB was investigated. The following table indicates the percent of Compound AA and Compound BB remaining after 60 minutes.

Plasma stability, rat = type: in vitro ADME
Procedure: as §4

[3] = Plasma protein binding assay, rat; type: in vitro ADME; conditions: read-out: Plasma Protein binding (% Bound) Plasma rat (converted)
Procedure: Bound drug concentration in the brain was also investigated, and plasma protein binding assays were conducted. The following table (% bound) indicates results for Compound AA and Compound BB.

[4] = Bioavailability and CSF/brain/plasma exposure after PO administration; type: in vivo, Sprague Dawley rats; conditions: rat, plasma; PO administration (10 mg/kg PO, 2 mg/kg IV), male Sprague Dawley rats; read-out: Bioavailablity (% F)
Procedure: The bioavailablity of Compound BB was investigated following PO administration. CSF, brain and plasma samples were analyzed following dosing with compound BB (10 mg/kg). The following table indicates the bioavailablity and CSF/plasma and brain/plasma ratios.
Sprague Dawley rats were dosed intravenously with 2 mg/kg of Compound AA. A second group of Sprague Dawley rats was dosed per os with 10 mg/kg of compound AA. Plasma samples were drawn over a 24 h period and analyzed for Compound AA. FIG. 3A presents the mean plasma concentration-time profile of Compound AA following the single intraveneous (2 mg/kg) and oral (10 mg/kg) dose administration in male Sprague Dawley rats over the 24 hour period.
In another experiment. Sprague Dawley rats were dosed intravenously with 2 mg/kg of Compound BB. A second group of Sprague Dawley rats was dosed per os with 10 mg/kg of compound BB. Plasma samples were drawn over a 24 h period and analyzed for Compound BB. FIG. 3B presents the mean plasma concentration-time profile of Compound BB following the single intraveneous (2 mg/kg) and oral (10 mg/kg) dose administration in male Sprague Dawley rats over the 24 hour period.
In another experiment, Sprague Dawley rats were dosed per os with 10 mg/kg of Compound BB. Plasma, brain, and CSF samples were analyzed at various time points over a 24 hour period.

Sprague Dawley rats = assay: Porsolt forced swim test; type: in vivo, rat; conditions: 1 mg/kg PO
Procedure: A non-clinical in vivo pharmacology study (Porsolt assay) was performed to measure antidepressant-like effects. A negative control (0.5% sodium carboxymethyl cellulose in 0.9% sterile saline vehicle) and a positive control (Compound C) were used to compare against Compound BB. The study allowed for the construction of a dose-response curve of the effects of each compound on the Porsolt forced swim test as assessed by the rats' response (reduced floating time) during a 5-minute swimming test.
Male 2-3 month old Sprague Dawley rats were used (Harlan, Indianapolis, Ind.). Rats were housed in Lucite cages with aspen wood chip bedding, maintained on a 12:12 light:dark cycle (lights on at 5 AM), and given ad libitum access to Purina lab chow (USA) and tap water throughout the study.
The Porsolt forced swim test adapted for use in rats was performed as described by Burgdorf et al., (The long-lasting antidepressant effects of rapastinel (GLYX-13) are associated with a metaplasticity process in the medial prefrontal cortex and hippocampus. Neuroscience 308:202-211, 2015). Animals were placed in a 46 cm tall×20 cm in diameter clear glass tube filled to 30 cm with tap water (23±1° C.) for 15 min on the first day (habituation) and 5 min on the subsequent test day. Animals were tested 1 h post-dosing with the compound BB, positive control (Compound C, 10 μg/kg), or vehicle (0.5% sodium carboxymethyl cellulose (Na-CMC) in 0.9% sterile saline). Water was changed after every other animal. Animals were videotaped, and floating time as defined as the minimal amount of effort required to keep the animals head above water was scored offline by a blinded experimenter with high inter-rater reliability (Pearson's r >0.9).
The maximally efficacious dose was defined as the lowest dose that was statistically different from vehicle but statistically equivalent (per Fisher's PLSD) to the higher doses. […]
Compound AA was assessed in a second set of animals at a single dose at 1 h post-administration and in a third set of animals at 24 h post-administration (FIG. 9B). […]

[5] = wild-type NMDAR2A, 0 = no activity, read-out: NMDAR2A BINDING PROFILE −logEC50 (converted)
[6] = wild-type NMDAR2C, 0 = no activity, read-out: NMDAR2C BINDING PROFILE −logEC50 (converted)
[7] = wild-type NMDAR2D, read-out: NMDAR2D BINDING PROFILE −logEC50 (converted)
[8] = potentiation of [3H]MK-801 binding

Chain of NR2B (Q13224 27-1484, species assumed, other chains not shown): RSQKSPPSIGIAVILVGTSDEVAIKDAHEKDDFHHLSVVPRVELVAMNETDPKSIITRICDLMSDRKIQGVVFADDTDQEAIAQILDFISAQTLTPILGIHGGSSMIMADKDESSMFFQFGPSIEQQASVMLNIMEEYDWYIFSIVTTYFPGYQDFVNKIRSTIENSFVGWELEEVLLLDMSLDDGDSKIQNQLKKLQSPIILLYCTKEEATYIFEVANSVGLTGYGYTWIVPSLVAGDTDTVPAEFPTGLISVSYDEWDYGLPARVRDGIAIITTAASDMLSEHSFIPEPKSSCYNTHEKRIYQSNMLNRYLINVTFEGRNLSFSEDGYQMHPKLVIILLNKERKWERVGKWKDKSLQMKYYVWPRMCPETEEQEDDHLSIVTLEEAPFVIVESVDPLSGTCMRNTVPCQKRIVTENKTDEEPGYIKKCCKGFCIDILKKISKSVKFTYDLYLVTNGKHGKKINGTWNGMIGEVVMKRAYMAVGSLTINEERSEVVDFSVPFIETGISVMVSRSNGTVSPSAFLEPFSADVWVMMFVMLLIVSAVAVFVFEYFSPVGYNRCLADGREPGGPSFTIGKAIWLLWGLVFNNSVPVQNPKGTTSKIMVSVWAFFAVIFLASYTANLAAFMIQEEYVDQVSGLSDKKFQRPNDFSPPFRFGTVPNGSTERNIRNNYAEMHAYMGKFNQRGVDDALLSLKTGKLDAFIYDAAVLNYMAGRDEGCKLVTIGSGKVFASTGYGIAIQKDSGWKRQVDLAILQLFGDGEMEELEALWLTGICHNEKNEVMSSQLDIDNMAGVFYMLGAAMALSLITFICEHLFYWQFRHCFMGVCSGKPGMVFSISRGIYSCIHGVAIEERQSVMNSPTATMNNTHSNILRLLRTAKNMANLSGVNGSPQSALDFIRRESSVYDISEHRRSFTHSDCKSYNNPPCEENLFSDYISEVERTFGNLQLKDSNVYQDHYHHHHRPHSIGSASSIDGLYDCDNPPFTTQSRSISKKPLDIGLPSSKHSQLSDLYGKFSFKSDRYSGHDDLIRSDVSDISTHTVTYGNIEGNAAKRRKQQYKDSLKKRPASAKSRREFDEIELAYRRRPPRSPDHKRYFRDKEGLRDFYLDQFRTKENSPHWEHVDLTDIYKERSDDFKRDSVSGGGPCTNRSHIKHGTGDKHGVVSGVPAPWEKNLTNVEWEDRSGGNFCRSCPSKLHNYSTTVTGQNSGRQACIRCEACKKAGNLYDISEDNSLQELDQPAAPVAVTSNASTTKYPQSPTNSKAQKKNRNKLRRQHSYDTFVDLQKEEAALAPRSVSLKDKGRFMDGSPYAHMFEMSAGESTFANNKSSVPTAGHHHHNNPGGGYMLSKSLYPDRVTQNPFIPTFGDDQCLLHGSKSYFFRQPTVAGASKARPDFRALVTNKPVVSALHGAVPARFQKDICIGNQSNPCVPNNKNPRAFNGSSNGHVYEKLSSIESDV
Chain of NR2C (Q14957 20-1233, species assumed, other chains not shown): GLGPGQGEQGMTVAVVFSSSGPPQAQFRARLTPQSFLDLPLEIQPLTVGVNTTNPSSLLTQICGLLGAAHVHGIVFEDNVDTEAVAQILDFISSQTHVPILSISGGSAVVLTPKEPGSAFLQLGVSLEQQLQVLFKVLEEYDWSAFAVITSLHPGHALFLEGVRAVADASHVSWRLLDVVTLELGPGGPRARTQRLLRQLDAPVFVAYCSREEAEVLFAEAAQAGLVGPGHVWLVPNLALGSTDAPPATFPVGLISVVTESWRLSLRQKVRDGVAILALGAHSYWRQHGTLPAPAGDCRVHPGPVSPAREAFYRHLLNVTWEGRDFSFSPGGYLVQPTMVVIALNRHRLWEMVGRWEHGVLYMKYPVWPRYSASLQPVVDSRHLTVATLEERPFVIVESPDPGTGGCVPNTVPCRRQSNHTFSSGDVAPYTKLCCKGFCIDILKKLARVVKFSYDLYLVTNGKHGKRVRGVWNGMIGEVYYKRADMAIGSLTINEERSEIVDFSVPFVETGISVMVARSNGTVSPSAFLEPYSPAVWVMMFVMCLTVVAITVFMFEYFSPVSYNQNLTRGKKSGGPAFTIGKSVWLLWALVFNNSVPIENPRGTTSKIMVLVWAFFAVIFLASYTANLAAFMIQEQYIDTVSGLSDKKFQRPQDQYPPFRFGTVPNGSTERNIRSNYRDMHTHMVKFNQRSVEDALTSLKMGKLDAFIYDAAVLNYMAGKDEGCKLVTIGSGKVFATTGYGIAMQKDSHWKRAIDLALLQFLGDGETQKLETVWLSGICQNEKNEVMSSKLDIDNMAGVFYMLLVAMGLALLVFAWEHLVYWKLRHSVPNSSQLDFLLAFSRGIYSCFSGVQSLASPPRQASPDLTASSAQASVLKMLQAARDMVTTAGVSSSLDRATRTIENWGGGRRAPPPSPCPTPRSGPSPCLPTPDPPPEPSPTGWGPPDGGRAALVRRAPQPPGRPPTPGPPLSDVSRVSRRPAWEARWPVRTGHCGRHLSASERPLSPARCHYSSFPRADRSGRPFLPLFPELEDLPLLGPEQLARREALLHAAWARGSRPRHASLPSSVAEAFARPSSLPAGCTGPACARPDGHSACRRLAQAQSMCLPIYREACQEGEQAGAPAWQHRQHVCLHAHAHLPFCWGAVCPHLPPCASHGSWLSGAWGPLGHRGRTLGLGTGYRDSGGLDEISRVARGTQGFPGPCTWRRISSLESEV
Chain of NR2D (O15399 28-1336, species assumed, other chains not shown): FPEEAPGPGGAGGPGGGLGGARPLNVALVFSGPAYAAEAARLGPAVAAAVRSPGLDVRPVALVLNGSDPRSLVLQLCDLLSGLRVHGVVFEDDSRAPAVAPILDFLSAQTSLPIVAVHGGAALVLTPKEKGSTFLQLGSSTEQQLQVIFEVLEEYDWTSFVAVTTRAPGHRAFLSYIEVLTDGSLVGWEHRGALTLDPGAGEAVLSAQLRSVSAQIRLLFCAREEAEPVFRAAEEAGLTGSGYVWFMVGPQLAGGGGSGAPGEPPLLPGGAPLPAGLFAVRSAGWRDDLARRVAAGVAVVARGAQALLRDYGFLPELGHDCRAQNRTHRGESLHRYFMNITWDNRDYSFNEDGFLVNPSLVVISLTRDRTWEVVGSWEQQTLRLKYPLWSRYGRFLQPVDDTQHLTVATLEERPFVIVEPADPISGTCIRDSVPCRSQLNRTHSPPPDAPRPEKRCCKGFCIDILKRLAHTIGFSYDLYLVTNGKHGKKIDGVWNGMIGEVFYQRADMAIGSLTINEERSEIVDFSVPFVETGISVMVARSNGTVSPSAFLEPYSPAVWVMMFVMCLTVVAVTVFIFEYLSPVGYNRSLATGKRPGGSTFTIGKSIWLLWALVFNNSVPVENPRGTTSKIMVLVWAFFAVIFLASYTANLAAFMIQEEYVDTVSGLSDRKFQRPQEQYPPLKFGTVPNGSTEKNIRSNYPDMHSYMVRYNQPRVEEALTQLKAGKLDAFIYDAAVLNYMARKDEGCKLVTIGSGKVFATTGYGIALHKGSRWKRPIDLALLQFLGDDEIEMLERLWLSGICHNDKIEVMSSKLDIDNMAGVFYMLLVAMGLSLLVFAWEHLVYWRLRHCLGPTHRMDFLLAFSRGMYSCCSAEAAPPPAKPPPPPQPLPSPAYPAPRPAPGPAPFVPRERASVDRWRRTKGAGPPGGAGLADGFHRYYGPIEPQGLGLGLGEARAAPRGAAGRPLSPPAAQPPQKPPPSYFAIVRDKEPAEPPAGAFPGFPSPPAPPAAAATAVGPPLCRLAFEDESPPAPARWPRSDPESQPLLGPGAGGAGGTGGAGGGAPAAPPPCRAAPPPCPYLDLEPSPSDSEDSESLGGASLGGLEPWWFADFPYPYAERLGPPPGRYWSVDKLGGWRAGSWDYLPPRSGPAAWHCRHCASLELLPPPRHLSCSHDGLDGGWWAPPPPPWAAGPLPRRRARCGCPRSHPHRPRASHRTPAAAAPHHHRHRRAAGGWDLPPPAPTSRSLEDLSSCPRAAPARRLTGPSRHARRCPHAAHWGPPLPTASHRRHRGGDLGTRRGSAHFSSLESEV

SMILES | NMDAR2A BINDING PROFILE % 1 mM Glycine (NR2A) [%] | NMDAR2A BINDING PROFILE Conclusion (NR2A; wild-type NMDAR2A) | EC50 (NR2A; [5]) [M] | NMDAR2B BINDING PROFILE % 1 mM Glycine (NR2B) [%] | NMDAR2B BINDING PROFILE Conclusion (NR2B) | NMDAR2C BINDING PROFILE % 1 mM Glycine (NR2C) [%] | NMDAR2C BINDING PROFILE Conclusion (NR2C; wild-type NMDAR2C) | EC50 (NR2C; [6]) [M] | NMDAR2D BINDING PROFILE % 1 mM Glycine (NR2D) [%] | NMDAR2D BINDING PROFILE Conclusion (NR2D; wild-type NMDAR2D) | EC50 (NR2D; [7]) [M] | EC50 (NR2B) [nM] | other results
CC(C)C(=O)N1CCC[C@@]12CN([C@H](C(N)=O)[C@@H](C)O)C2=O [Compound Z, (2S,3R)-3-hydroxy-2-((S)-5-isobutyryl-1-oxo-2,5-diazaspiro[3,4]octan-2-yl)butanamide] | 42.5 | WT2A agonist | 8.71e-11 | 70.49 | WT2B agonist | 47.76 | WT2C agonist | 3.16e-12 | 65.32 | WT2D agonist | 6.03e-12 | – | –
C[C@@H](O)[C@@H](C(N)=O)N1C[C@]2(CCCN2C(=O)OC(C)(C)C)C1=O [Compound W, tert-butyl (R)-2-((2S,3R)-1-amino-3-hydroxy-1-oxobutan-2-yl)-1-oxo-2,5-diazaspiro[3,4]octane-5-carboxylate] | 18.33 | WT2A agonist | 4.47e-12 | 53.09 | WT2B agonist | 67.5 | WT2C agonist | 1.45e-10 | 66.72 | WT2D agonist | 7.08e-12 | 1.06 | –
C[C@@H](O)[C@@H](C(N)=O)N1C[C@@]2(CCCN2C(=O)OC(C)(C)C)C1=O [Compound X, tert-butyl (S)-2-((2S,3R)-1-amino-3-hydroxy-1-oxobutan-2-yl)-1-oxo-2,5-diazaspiro[3,4]octane-5-carboxylate] | 41.04 | WT2A agonist | – | 59.55 | WT2B agonist | 59.73 | WT2C agonist | – | 93.58 | WT2D agonist | 1.32e-12 | 0.147 | –
C[C@@H](O)[C@@H](C(N)=O)N1C[C@]2(CCCN2S(C)(=O)=O)C1=O [Compound AA, (2S,3R)-3-hydroxy-2-((R)-5-(methylsulfonyl)-1-oxo-2,5-diazaspiro[3,4]octan-2-yl)butanamide] | 38.8 | WT2A agonist | – | 0 | WT2B no | 67 | WT2C agonist | – | 52 | WT2D agonist | 1.58e-11 | – | Microsomal Stability (% remaining at 60 min) Human [1]: 100%; Microsomal Stability (% remaining at 60 min) Rat [2]: 100%; Plasma Stability (% remaining at 60 min) Human (Plasma stability, human): 91%; Plasma Stability (% remaining at 60 min) Rat (Plasma stability, rat): 59%; fraction unbound [3]: 0.82; bioavailability [4]: 29%; NR2A A (%) (activity) (NR2A; [8]): 38.8%; EC50 (NR2A; potentiation of [3H]MK-801 binding, 0 = no activity, read-out: NR2A P (M) (potency)): 1e-10 M; NMDAR2A BINDING PROFILE −logEC50 (NR2A; wild-type NMDAR2A, 0 = no activity): 10; NR2B A (%) (activity) (NR2B; [8]): 0%; NR2C A (%) (activity) (NR2C; [8]): 67.0%; EC50 (NR2C; potentiation of [3H]MK-801 binding, 0 = no activity, read-out: NR2C P (M) (potency)): 1e-10 M; NMDAR2C BINDING PROFILE −logEC50 (NR2C; wild-type NMDAR2C, 0 = no activity): 10; NR2D A (%) (activity) (NR2D; [8]): 58.7%; EC50 (NR2D; potentiation of [3H]MK-801 binding, 0 = no activity, read-out: NR2D P (M) (potency) (converted)): 2e-11 M; floating time in the Porsolt test (Sprague Dawley rats; 1 h post-dosing): significant (p<0.05) antidepressant-like effect; floating time in the Porsolt test (Sprague Dawley rats; 24 h post-dosing): significant (p<0.05) antidepressant-like effect
CC(C)C(=O)N1CCC[C@]12CN([C@H](C(N)=O)[C@@H](C)O)C2=O [Compound Y, (2S,3R)-3-hydroxy-2-((R)-5-isobutyryl-1-oxo-2,5-diazaspiro[3,4]octan-2-yl)butanamide] | 61.76 | WT2A agonist | 8.91e-12 | 70.74 | WT2B agonist | 64.24 | WT2C agonist | 3.63e-12 | 54.85 | WT2D agonist | 1e-10 | – | –
